# Reference: ChEMBL document CHEMBL1201862, “PubChem BioAssay data set” (2004)
# Where a name gives a salt, the structure may show the parent alone. Activity calls are given as the source filed them.
# Experiments:
# [1] = cytotoxicity in MIN6 insulinoma cells, dose response, cytotoxicity control, cell-based, mouse insulinoma (AID 2122); assay type: functional;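 note: confirmatory high-throughput counterscreen run to flag cytotoxic compounds; mouse MIN-6 beta cells carrying an insulin promoter eGFP reporter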
# [2] = insulin promoter down-regulators in MIN6 cells, imaging, high-content screening, mouse beta cells (AID 1628); assay type: functional
# [3] = A Cell Based Secondary Assay To Explore Cytotoxicity of Compounds that Sensitize Mycobacterium Tuberculosis to Beta-Lactam Antibiotics.; assay type: functional
# [4] = molecular target: T1, Type-1 angiotensin II receptor (Homo sapiens, UniProt P30556); test: AT1 receptor antagonists, dose response, selectivity assay for APJ receptor antagonist project, cell-based, uHTS hits (AID 463214); assay type: functional;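 note: antagonist potency against angiotensin II stimulated AT1 response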
# T1 sequence (P30556 whole entry): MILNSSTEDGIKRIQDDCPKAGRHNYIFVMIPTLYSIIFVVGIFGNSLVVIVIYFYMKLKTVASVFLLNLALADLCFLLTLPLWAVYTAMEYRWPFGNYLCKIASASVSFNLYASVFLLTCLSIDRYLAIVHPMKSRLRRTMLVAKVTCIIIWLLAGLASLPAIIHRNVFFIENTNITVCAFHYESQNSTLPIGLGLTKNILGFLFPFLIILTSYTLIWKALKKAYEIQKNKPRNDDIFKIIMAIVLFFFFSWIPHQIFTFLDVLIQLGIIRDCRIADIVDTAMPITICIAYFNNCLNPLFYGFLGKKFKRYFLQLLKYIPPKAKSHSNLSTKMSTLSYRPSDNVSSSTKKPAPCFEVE
# Beta-galactosidase [5] = molecular target: T2, Beta-galactosidase (Escherichia coli, UniProt Q8VNN2); test: PubChem AID 485352; assay type: functional
# HEK293 [6] = test: NOD2 signaling inhibitors in MDP-stimulated cells, cell-based, uHTS, luminescence (AID 2001); assay type: functional; settings: Homo sapiens
# HEK293 [7] = test: cells; assay type: functional, cell-based; settings: Homo sapiens
# HEK293 [8] = test: cells; assay type: functional, cell-based; settings: Homo sapiens; remark: listed apart in the source
# HEK293 [9] = test: NOD1 signaling inhibitors, primary screen, cell-based, luminescence, uHTS (AID 1578); assay type: functional; settings: Homo sapiens
# [10] = P. falciparum Dd2 growth inhibitors, dose response, SYBR Green, cherry-picked samples (AID 1159567); assay type: functional, cell-based
# [11] = HepG2 cell cytotoxicity, dose response, cytotoxicity control, plate reader, dry powder samples (AID 1159569); assay type: functional, cell-based;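 note: inhibitor potency with signal falling toward the positive control level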
# [12] = P. falciparum ATP4 D1247Y mutant growth inhibitors, dose response, NITD609-resistant line, SYBR Green, dry powder (AID 1159571); assay type: functional, cell-based;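 note: parasites synchronized at ring stage by sorbitol before testing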
# [13] = P. falciparum Dd2 growth inhibitors, dose response, SYBR Green, dry powder samples (AID 1159566); assay type: functional, cell-based;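 note: potency for growth inhibition with lower SYBR green DNA signal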
# [14] = P. falciparum 3D7-ScDHODH growth inhibitors, dose response, SYBR Green, dry powder samples (AID 1159570); assay type: functional, cell-based;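 note: parasite growth measured after 72 hours of compound exposure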
# [15] = HepG2 cell cytotoxicity, dose response, cytotoxicity control, cherry-picked samples (AID 1159577); assay type: functional, cell-based
# [16] = molecular target: Voltage-gated inwardly rectifying potassium channel KCNH2 (Homo sapiens, UniProt Q12809); settings: Potency;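 note: confirmatory quantitative high-throughput screen measuring inhibition of hERG channel activity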
# [17] = molecular target: 5-hydroxytryptamine receptor 2A (Mus musculus, UniProt P35363); assay type: functional, cell-based;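 note: CHO-K1 cells with tagged receptor and beta-arrestin; agonist potency measured as compound-induced activation of the receptor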
# [18] = molecular target: T3, Nuclear receptor subfamily 0 group B member 1 (Homo sapiens, UniProt P51843); assay type: functional, cell-based;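 note: HEK293T cells transfected with SF-1 and DAX-1 plus StAR promoter luciferase reporter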
# T3 sequence (P51843 whole entry): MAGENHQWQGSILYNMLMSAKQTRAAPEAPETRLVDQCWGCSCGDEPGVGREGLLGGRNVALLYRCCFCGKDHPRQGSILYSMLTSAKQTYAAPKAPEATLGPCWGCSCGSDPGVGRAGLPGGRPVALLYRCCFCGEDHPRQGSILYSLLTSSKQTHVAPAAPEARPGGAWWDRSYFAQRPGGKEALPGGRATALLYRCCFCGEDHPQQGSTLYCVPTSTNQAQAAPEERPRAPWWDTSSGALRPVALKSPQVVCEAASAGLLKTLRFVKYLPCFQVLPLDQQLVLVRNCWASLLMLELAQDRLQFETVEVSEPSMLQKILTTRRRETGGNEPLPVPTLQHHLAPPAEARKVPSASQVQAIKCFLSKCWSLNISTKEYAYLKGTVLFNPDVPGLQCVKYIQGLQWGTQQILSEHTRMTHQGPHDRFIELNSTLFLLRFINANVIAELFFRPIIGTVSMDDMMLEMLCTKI
# cells [19] = assay type: functional, cell-based
# [20] = HEp-2 cell cytotoxicity, dose response, cytotoxicity control for RSV inhibitor project, HTS (AID 2410); assay type: functional; settings: human respiratory syncytial virus
# [21] = test system: Streptococcus sp. 'group A'; test: growth inhibition of control SK(-) GAS strain, dose response, counter-screen for streptokinase expression inhibitor project, luminescence, kanamycin, BacTiterGlo, confirmation (AID 1900); assay type: functional, organism-based
# [22] = inhibitors of intracellular T. cruzi replication, confirmation, NIH3T3 host cells, beta-gal luminescence (AID 2044); assay type: functional, cell-based;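 note: intracellular parasites grown in NIH/3T3 mouse fibroblasts as host cells; luminescent beta-galactosidase reporter signal from transgenic T. cruzi replicating inside host cells; inhibitors lower the luminescence signal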
# Streptokinase A = molecular target: T4, Streptokinase A (Streptococcus pyogenes serotype M1, UniProt P10520); test: S. pyogenes streptokinase expression inhibitors, potency, dose response, plasminogen activation absorbance, OD405 (AID 1914); assay type: functional, Streptococcus pyogenes M1 GAS;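 note: secreted streptokinase activity via plasminogen activation per viability signal from cell pellet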
# T4 sequence (P10520 whole entry): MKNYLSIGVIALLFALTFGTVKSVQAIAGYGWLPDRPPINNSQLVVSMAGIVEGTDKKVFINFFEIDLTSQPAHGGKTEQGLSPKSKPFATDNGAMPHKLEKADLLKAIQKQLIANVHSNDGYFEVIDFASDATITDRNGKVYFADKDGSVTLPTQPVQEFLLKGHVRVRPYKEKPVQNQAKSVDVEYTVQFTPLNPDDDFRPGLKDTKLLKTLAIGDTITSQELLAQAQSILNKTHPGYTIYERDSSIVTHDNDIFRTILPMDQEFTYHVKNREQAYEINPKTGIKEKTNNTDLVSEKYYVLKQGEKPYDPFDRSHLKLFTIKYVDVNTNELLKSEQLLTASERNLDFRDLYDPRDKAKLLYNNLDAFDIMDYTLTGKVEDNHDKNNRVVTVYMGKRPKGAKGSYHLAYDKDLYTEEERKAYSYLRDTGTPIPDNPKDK
# [23] = cytotoxicity toward NIH3T3 fibroblasts, dose response, counter-screen, cell-based, ATP luminescence, mouse fibroblasts (AID 2010); assay type: functional;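 note: cells exposed to compound for about 90 hours before reading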
# Streptococcus = test: Group A Streptococcus viability loss, dose response, counter-screen for streptokinase expression inhibitor project, luminescence, BacTiterGlo (AID 1915); assay type: functional, organism-based;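 note: potency for reduction of bacterial viability or growth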
# [24] = molecular target: DNA dC->dU-editing enzyme APOBEC-3A (Homo sapiens, UniProt P31941); test: APOBEC3A DNA deaminase inhibitors, dose response, biochemical (AID 504722); assay type: functional
# [25] = molecular target: DNA dC->dU-editing enzyme APOBEC-3G (Homo sapiens, UniProt Q9HC16); test: Dose Response confirmation of small molecule APOBEC3G DNA Deaminase Inhibitors via a fluorescence-based single-stranded DNA deaminase assay. [Related pubchem assays (depositor defined):AID493012, AID493028]; assay type: functional
# [26] = inhibitors of SNCA 5'UTR-driven reporter translation, confirmation, H4 neuroglioma cells, luminescence (AID 1988); assay type: functional, cell-based
# Beta-galactosidase [27] = molecular target: T2, Beta-galactosidase; test: beta-galactosidase enzyme inhibitors and activators, dose response, artefact control for CCR6 antagonist project, biochemical, E. coli enzyme, set 3 (AID 504712); assay type: functional
# [28] = Luminescence Cell-Based Dose Response HTS to Identify Inhibitors of 5'UTR Stem-Loop Driven Prion Protein mRNA Translation in H4 Neuroglioblastoma Cells. [Related pubchem assays: 1827 (Project Summary), 1813 (Primary HTS)]; assay type: functional
# [29] = inhibitors of firefly luciferase expression or activity, dose response, H4 neuroglioma cells, luminescence (AID 1990); assay type: functional, cell-based
# [30] = molecular target: T5, Heat shock factor protein 1 (Mus musculus, UniProt P38532); test: inhibition of MG132-induced HSE-luciferase signal, confirmation, cell-based, NIH3T3, luminescence, dose retest (AID 2382); assay type: functional;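 note: NIH3T3 fibroblasts with HSF1-driven luciferase reporter stressed by proteasome inhibitor MG132; luminescence from HSF1-driven luciferase expression after 8 hours of MG132 stress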
# T5 sequence (P38532 whole entry): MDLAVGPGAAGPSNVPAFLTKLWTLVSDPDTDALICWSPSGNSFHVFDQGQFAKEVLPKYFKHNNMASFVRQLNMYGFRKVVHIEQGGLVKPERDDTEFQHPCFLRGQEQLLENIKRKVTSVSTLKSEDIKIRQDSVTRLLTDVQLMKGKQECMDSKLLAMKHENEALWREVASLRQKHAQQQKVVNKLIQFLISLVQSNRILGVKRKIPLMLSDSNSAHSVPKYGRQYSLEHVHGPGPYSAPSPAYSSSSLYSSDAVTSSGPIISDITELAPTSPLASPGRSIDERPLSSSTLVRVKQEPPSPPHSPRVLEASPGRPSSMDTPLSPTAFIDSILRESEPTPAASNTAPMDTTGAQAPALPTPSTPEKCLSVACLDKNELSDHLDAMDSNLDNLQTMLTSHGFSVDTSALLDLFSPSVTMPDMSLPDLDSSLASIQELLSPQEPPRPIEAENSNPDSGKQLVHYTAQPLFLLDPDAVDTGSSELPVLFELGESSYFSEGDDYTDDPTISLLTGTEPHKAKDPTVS
# cells [31] = test: cells
# [32] = molecular target: T6, Oxysterols receptor LXR-beta (Homo sapiens, UniProt P55055); assay type: functional, cell-based;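 note: Cell-based luminescence dose-response assay of agonist activity at LXR, run as a confirmatory counterscreen to a daf-12 agonist screen; HEK293 cells with Gal4-LXR fusion and GAL4-driven luciferase reporter; agonist potency from rising luciferase signal of a Gal4-LXR reporter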
# T6 sequence (P55055 whole entry): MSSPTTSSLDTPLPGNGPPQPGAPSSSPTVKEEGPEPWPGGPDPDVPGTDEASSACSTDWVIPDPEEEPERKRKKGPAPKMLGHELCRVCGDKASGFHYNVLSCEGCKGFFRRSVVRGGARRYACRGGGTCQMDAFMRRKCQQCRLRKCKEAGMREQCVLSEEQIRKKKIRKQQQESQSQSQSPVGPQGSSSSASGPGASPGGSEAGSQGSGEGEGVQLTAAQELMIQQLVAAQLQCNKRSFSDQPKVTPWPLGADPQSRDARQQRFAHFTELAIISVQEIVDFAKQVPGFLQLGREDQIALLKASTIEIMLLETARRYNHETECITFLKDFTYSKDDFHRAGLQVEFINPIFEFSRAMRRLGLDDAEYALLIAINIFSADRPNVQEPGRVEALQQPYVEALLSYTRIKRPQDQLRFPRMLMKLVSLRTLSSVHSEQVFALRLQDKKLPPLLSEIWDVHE
# [33] = Luminescence Cell-Based Dose Retest to Confirm Inhibitors of Cancer Stem Cells. [Related pubchem assays (depositor defined):AID2717, AID2721]; assay type: functional; settings: Homo sapiens
# T2 sequence (Q8VNN2 whole entry): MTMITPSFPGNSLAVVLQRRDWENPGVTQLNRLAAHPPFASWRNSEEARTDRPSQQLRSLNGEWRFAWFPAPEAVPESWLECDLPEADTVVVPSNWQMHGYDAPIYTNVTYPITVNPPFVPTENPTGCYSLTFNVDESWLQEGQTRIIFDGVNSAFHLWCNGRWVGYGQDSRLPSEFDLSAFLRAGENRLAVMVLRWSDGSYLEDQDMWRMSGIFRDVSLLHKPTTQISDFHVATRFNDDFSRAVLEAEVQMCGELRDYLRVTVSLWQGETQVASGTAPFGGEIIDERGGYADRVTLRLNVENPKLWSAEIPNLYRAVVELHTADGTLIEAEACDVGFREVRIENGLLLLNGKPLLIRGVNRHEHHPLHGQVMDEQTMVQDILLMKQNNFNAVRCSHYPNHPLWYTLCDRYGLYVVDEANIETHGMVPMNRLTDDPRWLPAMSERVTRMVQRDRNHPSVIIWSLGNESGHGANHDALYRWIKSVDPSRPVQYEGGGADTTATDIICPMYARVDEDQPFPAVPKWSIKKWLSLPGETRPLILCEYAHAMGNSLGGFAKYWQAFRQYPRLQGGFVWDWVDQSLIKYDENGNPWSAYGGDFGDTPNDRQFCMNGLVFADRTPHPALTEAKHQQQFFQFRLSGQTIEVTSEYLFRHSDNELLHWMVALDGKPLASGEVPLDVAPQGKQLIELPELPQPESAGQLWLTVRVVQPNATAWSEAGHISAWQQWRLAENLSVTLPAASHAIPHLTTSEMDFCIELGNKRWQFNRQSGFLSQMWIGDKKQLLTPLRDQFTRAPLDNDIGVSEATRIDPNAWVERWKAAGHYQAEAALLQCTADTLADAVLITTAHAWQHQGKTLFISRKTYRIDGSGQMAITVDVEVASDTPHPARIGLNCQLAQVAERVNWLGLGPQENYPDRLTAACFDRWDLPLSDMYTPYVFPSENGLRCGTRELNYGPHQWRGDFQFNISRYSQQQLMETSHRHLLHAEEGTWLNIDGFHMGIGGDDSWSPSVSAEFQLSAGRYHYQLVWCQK
# Sequence of Voltage-gated inwardly rectifying potassium channel KCNH2 (Q12809 whole entry): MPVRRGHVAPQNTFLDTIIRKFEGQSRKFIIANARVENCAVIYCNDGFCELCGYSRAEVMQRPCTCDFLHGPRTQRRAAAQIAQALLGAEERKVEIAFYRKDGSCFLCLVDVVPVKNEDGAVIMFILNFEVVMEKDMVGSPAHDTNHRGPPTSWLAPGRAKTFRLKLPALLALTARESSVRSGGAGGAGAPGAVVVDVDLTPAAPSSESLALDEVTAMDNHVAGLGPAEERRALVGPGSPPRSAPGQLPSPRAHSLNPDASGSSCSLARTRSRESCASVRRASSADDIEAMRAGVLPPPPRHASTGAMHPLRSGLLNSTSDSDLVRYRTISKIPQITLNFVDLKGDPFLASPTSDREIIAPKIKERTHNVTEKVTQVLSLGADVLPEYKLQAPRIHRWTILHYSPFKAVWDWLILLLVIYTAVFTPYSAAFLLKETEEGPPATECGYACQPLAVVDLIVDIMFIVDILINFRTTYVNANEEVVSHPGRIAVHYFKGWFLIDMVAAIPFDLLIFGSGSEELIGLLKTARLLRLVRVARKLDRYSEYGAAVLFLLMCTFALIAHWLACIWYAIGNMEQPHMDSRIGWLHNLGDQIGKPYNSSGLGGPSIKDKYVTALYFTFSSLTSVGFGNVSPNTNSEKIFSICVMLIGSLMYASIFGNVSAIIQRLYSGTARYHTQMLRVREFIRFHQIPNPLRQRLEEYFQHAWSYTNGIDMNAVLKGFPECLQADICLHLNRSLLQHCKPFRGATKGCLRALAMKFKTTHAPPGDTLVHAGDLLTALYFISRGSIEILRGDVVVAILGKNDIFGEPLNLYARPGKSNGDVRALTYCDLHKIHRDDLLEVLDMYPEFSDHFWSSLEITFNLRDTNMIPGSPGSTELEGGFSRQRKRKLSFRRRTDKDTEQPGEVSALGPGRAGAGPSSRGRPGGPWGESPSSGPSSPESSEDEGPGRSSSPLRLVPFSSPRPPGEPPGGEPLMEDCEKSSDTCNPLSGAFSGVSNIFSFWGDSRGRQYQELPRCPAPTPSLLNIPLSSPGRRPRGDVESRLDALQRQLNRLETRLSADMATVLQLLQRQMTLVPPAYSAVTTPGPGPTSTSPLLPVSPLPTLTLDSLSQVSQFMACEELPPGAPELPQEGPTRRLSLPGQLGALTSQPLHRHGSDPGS
# Sequence of DNA dC->dU-editing enzyme APOBEC-3G (Q9HC16 whole entry): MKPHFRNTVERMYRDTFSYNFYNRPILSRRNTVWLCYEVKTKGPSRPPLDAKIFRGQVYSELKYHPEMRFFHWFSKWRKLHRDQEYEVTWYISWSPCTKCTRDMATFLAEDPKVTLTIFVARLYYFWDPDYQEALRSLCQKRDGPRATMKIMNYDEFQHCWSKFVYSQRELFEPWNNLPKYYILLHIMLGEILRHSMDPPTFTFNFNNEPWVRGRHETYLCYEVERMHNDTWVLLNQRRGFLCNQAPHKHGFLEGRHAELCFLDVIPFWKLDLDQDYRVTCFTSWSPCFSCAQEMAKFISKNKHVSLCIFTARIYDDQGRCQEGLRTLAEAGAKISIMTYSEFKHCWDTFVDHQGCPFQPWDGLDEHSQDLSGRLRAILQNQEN
# Sequence of DNA dC->dU-editing enzyme APOBEC-3A (P31941 whole entry): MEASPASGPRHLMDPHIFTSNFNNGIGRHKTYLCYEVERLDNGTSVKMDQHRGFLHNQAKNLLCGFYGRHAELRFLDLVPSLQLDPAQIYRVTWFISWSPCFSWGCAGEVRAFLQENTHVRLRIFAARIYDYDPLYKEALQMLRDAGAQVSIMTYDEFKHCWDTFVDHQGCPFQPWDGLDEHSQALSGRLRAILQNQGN
# Sequence of 5-hydroxytryptamine receptor 2A (P35363 whole entry): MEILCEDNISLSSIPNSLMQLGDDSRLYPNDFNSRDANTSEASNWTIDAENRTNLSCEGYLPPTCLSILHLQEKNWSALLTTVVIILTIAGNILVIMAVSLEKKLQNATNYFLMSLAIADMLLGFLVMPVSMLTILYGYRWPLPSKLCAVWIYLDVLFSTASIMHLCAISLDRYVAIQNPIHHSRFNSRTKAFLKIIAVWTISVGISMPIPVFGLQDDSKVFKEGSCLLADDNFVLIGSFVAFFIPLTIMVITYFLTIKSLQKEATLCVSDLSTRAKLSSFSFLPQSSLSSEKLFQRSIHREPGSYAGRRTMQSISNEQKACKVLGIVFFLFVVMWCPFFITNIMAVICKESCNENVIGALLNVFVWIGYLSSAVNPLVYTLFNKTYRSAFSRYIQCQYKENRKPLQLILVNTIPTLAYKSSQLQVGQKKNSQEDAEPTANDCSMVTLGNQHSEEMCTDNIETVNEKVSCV
smiles,measurement,setting,value
N#Cc1ccccc1NC(=O)C1SC(Nc2ccccc2)=C(C(=O)Nc2ccc(Cl)cc2)C1=N (stereo not drawn),IC50,[1],6.4 µM (active)
same,IC50,[2],8.77 µM (active)
CC(=O)n1cc([C@@H]2C=C(C(=O)N3CCN(Cc4ccc5c(c4)OCO5)CC3)O[C@H](OCCCCO)C2)c2ccccc21,CC50,[3],> 40 µM (active)
CC1=NC(Nc2nc(C)c3ccccc3n2)=NC(C)(C)C1,IC50,[4],13 µM (active)
same,EC50,Beta-galactosidase [5],> 40 µM (inactive)
Nc1ccc(S(=O)(=O)Nc2nccc(/C=C/c3cccc(Br)c3)n2)cc1,IC50,HEK293 [6],7.62 µM (active)
same,IC50,HEK293 [7],> 20 µM (inactive)
same,IC50,HEK293 [8],12.8 µM (active)
same,EC50,HEK293 [9],8.24 µM (active)
COc1ccccc1NC(=O)N1CCCCN2[C@@H](CO)[C@H](c3ccc(C#CC4CCCC4)cc3)[C@@H]2C1,AC50,[10],1.98 µM (active)
same,AC50,[11],10.6 µM (active)
same,AC50,[12],0.458 µM (active)
same,AC50,[13],0.386 µM (active)
same,AC50,[14],0.425 µM (active)
same,AC50,[15],17.4 µM (active)
CNCC(O)c1ccc(O)c(O)c1 (stereo not drawn) [RACEPINEPHRINE HYDROCHLORIDE],AC50,[16],12.6 µM (inconclusive)
same,EC50,[17],1.39 µM (active)
same,IC50,[18],> 67.6 µM (inactive)
same,IC50,cells [19],> 67.6 µM (inactive)
CCn1c(=O)n(CC)c2cc(N3CCCC3)c(NC(=O)c3cc(Br)ccc3OC)cc21,CC50,[3],37.6 µM (active)
same,CC50,[20],16.4 µM (active)
same,EC50,[21],7.36 µM (active)
same,EC50,[22],0.99 µM (active)
same,EC50,Streptokinase A,18.5 µM (active)
same,EC50,[23],12 µM (active)
same,EC50,Streptococcus,11.2 µM (active)
CC(C)CCn1c(N)c(C(=O)OCC2CCCO2)c2nc3ccccc3nc21 (stereo not drawn),IC50,[4],> 40 µM (not active)
same,EC50,Beta-galactosidase [5],> 40 µM (inactive)
COC(=O)C(C)Sc1nnc(S)s1 (stereo not drawn),IC50,[24],> 100 µM (inactive)
same,IC50,[25],15.8 µM (active)
NC(=O)c1c(NC(=O)c2ccc([N+](=O)[O-])o2)sc2c1CCCC2,EC50,[26],7.76 µM (active)
same,IC50,Beta-galactosidase [27],> 66.6 µM (inactive)
same,EC50,[28],47.5 µM (active)
same,EC50,[29],13.3 µM (active)
CN1C(=O)CCC1c1cccnc1 (stereo not drawn),AC50,[16],3.16 µM (inconclusive)
Cc1ccc2[nH]c(-c3sc4nc(C)cc(C)c4c3N)nc2c1,EC50,[30],21 µM (active)
same,EC50,cells [31],> 67.5 µM (inactive)
same,EC50,[32],> 67.5 µM (inactive)
Cc1ccc(-c2cc(-c3ccccc3)nc(NN)n2)cc1,IC50,[4],6.66 µM (active)
same,AC50,[33],5.4 µM (active)
same,EC50,Beta-galactosidase [5],> 40 µM (inactive)
C=CCOC(=O)CCCCCCCC,AC50,[16],79.4 µM (inconclusive)
Cc1cc(-c2nnc(S)n2CC(C)C)cs1,IC50,[24],> 100 µM (inactive)
same,IC50,[25],5.87 µM (active)
C[C@@H]1CN([C@@H](C)CO)C(=O)c2cc(NC(=O)Nc3ccc(C(F)(F)F)cc3)ccc2O[C@H]1CN(C)CC1CCCCC1,AC50,[10],10.6 µM (active)
same,AC50,[15],22 µM (active)
COc1cccc(-c2cccc(-c3nc(C(=O)Nc4ccc(-c5ccccc5)cc4)cc4c3[C@@H](CCO)N([S+]([O-])C(C)(C)C)C4)c2)c1 (stereo partly drawn),AC50,[10],2.71 µM (active)
same,AC50,[15],15.2 µM (active)
